According to patent US5620975A, “Pharmaceutical composition and method for the control of hypertension” (Hoffmann-La Roche Inc., priority 1991, dated 1997):
Counter-ions that a name gives are not always drawn.

Columns and labels:
[1] = test system: media of the right carotid artery; test: Cross-section surface (area) of the media of the carotid artery in rats after 15 days of treatment; type: in vivo, rat (male, strain RoRo); settings: rat carotid artery; for area of the media: cilazapril 10 mg/kg daily in feed, Compound A 30 mg/kg by probang, control 89000±5000 μm^2, combination p<0.05 (Student t-test); for effect of individual treatment on media area: result in words
Experimental: The influence of the individual compounds and their combination on the blood vessels was investigated in rats. Male rats, strain: RoRo (weight about 400 g; aged 4-5 months; Institut fur Biologisch-Medizinische Forschung, Fullinsdorf, CH) were used. The animals were divided randomly into a control group and into treatment groups. The duration of the treatment was 15 days. Cilazapril was admixed with the feed in an amount such that the daily intake was on average 10 mg/kg and Compound A (30 mg/kg) was administered using a probang. The control animals received the same laboratory feed without additive.
After 15 days, the rats were anaesthetized with ether and the carotid artery was fixed by perfusion with fixative agent (2.5% glutaraldehyde in 0.1M phosphate buffer, pH 7.4). For this, a probe was passed through the left ventricle of the heart into the ascending aorta (inflow) and a second probe was pushed through the right ventricle into the auricle (discharge).The vascular system was firstly rinsed with 10 ml of buffered isotonic NaCl solution and then fixed for 15 minutes with fixative at a pressure of 11.7 kPa. Subsequently, the right carotid artery was dissected, freed from adhering tissue and placed in 2.5% glutaraldehyde for further fixation. Each artery was divided into five vascular segments from the distal end to the proximal end, dehydrated and embedded in EPON 12 (Registered Mark of Shell A.G.). The middle segment was used for the morphological investigations. Semi-thin cross-sections (1 μm thick) were colored with toluidine blue and basic fuchsin. The cross-section surface of the media was measured with the morphometry system DIASYS (Datalab, Heinz Meyer, CH-3367 Thorigen).

[2] = test system: conscious dogs having renal hypertension; test: Blood pressure (MAP, telemetry) in conscious dogs having renal hypertension; type: in vivo, dog (German sheepdogs); settings: FIG. 1, conscious renal hypertensive dogs
Experimental: The antihypertensive effect of the combination was investigated in conscious dogs having renal hypertension. The hypertension was produced in German sheepdogs (weight 23-30 kg) using known methods in which one kidney is wrapped with cellophane and a stenosis is formed in the renal artery of the contralateral kidney using an occluder. The blood pressure was measured with a catheter implanted in the abdominal aorta and connected to a transmitter in the abdominal, cavity (telemetry). FIG. 1 illustrates the effect of cilazapril (10 mg/kg per os) and Compound A (30 mg/kg per os) alone, as well as, the effect of the simultaneous administration of the same dosages of the two substances (n=3 dogs for cilazapril and the combination, n=4 dogs for Compound A).

Bioavailability = settings: in vivo

SMILES | area of the media [1] | effect of individual treatment on media area [1] | effect on blood pressure (MAP) ([2]; cilazapril 10 mg/kg per os, Compound A 30 mg/kg per os, alone or simultaneously, result in words) | bioavailability (Bioavailability) | lowering of blood pressure (MAP) ([2]; Compound A 30 mg/kg per os alone, n=4)
CCOC(=O)[C@H](CCc1ccccc1)N[C@H]1CCCN2CCC[C@@H](C(=O)O)N2C1=O [cilazapril, 9(S)-[1(S)-ethoxycarbonyl-3-phenylpropylamino]octahydro-10-oxo-6H-pyridazo[1,2-a][1,2]diazepine-1(S)-carboxylic acid] | 84000±11000 μm^2 | without effect | without effect | 70% | –
COCC(=O)OC1(CCN(C)CCCc2nc3ccccc3[nH]2)CCc2cc(F)ccc2C1C(C)C (centres unmarked) [Compound A, [1S,2S]-2-[2-[[3-(2-benzimidazolyl)propyl]methylamino]ethyl]-6-fluoro-1,2,3,4-tetrahydro-1-isopropyl-2-naphthylmethoxyacetate dihydrochloride] | 87000±4000 μm^2 | without effect | – | 80 to 100% | 10-20 mmHg
